Results taken from ChEMBL document CHEMBL1201862, “PubChem BioAssay data set” (2004).
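Grown in 96-well plates, cells were treated for 48 hours with each compound at five concentrations. Insufficient inhibition: endpoint recorded as highest concentration tested. GI50: concentration for 50% inhibition of growth.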 Activity calls are given as the source filed them. No stated cut-off is given here; in the data, active = GI50 up to about 1.1 µM and inactive = higher.

What was measured:
Assay in all cases: inhibition of tumour cell growth, NCI panel, 48 h
[1] = tested on: RXF 393
[2] = tested on: UO-31
[3] = tested on: HOP-62
[4] = tested on: SNB-75
[5] = tested on: HT-29
[6] = tested on: Hs-578T
[7] = tested on: MDA-N
[8] = tested on: UACC-257
[9] = tested on: ACHN
[10] = tested on: NCI/ADR-RES
[11] = tested on: DU-145
[12] = tested on: SK-MEL-5
[13] = tested on: HCC 2998
[14] = tested on: LOX IMVI
[15] = tested on: SNB-19
[16] = tested on: HCT-116
[17] = tested on: NCI-H23
[18] = tested on: KM12
[19] = tested on: SF-539
[20] = tested on: RPMI-8226
[21] = tested on: IGROV-1
[22] = tested on: MCF7
[23] = tested on: SR
[24] = tested on: SF-268
[25] = tested on: COLO 205
[26] = tested on: SK-OV-3
[27] = tested on: Malme-3M
[28] = tested on: PC-3
[29] = tested on: OVCAR-3
[30] = tested on: SN12C
[31] = tested on: UACC-62
[32] = tested on: MOLT-4
[33] = tested on: EKVX
[34] = tested on: MDA-MB-231
[35] = tested on: HOP-92
[36] = tested on: U-251
[37] = tested on: HL-60
[38] = tested on: CCRF-CEM
[39] = tested on: SF-295
[40] = tested on: NCI-H460
[41] = tested on: 786-0
[42] = tested on: SK-MEL-28
[43] = tested on: MDA-MB-435
[44] = tested on: OVCAR-5
[45] = tested on: NCI-H522
[46] = tested on: K562
[47] = tested on: NCI-H226
[48] = tested on: A549
[49] = tested on: CAKI-1
[50] = tested on: HCT-15
[51] = tested on: SK-MEL-2
[52] = tested on: OVCAR-8
[53] = tested on: M14
[54] = tested on: SW-620
[55] = tested on: TK-10
[56] = tested on: BT-549
[57] = tested on: T47D
[58] = tested on: OVCAR-4
[59] = tested on: A498

## COc1ccc(/C(=N/O)c2ccccc2C2=Nc3ccccc3C(NCc3ccccc3)O2)cc1C (configuration not stated)
[1]
  GI50: 47.3 µM (inactive)
[2]
  GI50: 20.6 µM (inactive)
[3]
  GI50: 31.1 µM (inactive)
[4]
  GI50: 24.9 µM (inactive)
[5]
  GI50: 25.1 µM (inactive)
[6]
  GI50: 40.8 µM (inactive)
[7]
  GI50: 34.7 µM (inactive)
[8]
  GI50: 12.9 µM (inactive)
[9]
  GI50: 38 µM (inactive)
[10]
  GI50: 41.8 µM (inactive)
[11]
  GI50: 69.8 µM (inactive)
[12]
  GI50: 17.5 µM (inactive)
[13]
  GI50: 20.9 µM (inactive)
[14]
  GI50: 15.7 µM (inactive)
[15]
  GI50: 36.6 µM (inactive)
[16]
  GI50: 25.8 µM (inactive)
[17]
  GI50: > 100 µM (inactive)
[18]
  GI50: 46.2 µM (inactive)
[19]
  GI50: 96.2 µM (inactive)
[20]
  GI50: 26.2 µM (inactive)
[21]
  GI50: 40.5 µM (inactive)
[22]
  GI50: 29.2 µM (inactive)
[23]
  GI50: 32.6 µM (inactive)
[24]
  GI50: 42.3 µM (inactive)
[25]
  GI50: 17.2 µM (inactive)
[26]
  GI50: 21.2 µM (inactive)
[27]
  GI50: 18.6 µM (inactive)
[28]
  GI50: 17.3 µM (inactive)
[29]
  GI50: 45.7 µM (inactive)
[30]
  GI50: 22.9 µM (inactive)
[31]
  GI50: 23.9 µM (inactive)
[32]
  GI50: 29.5 µM (inactive)
[33]
  GI50: 74.5 µM (inactive)
[34]
  GI50: 32.7 µM (inactive)
[35]
  GI50: 20.5 µM (inactive)
[36]
  GI50: 30.5 µM (inactive)
[37]
  GI50: 34.8 µM (inactive)
[38]
  GI50: 19.1 µM (inactive)
[39]
  GI50: 25 µM (inactive)
[40]
  GI50: 29.9 µM (inactive)
[41]
  GI50: 44.3 µM (inactive)
[42]
  GI50: 44.1 µM (inactive)
[43]
  GI50: 27.2 µM (inactive)
[44]
  GI50: 33.8 µM (inactive)
[45]
  GI50: 34 µM (inactive)
[46]
  GI50: 16.7 µM (inactive)
[47]
  GI50: 37 µM (inactive)
[48]
  GI50: 49 µM (inactive)
[49]
  GI50: 56.2 µM (inactive)
[50]
  GI50: 30.3 µM
[51]
  GI50: 32.7 µM (inactive)
[52]
  GI50: 27.2 µM (inactive)
[53]
  GI50: 39.4 µM (inactive)
[54]
  GI50: 21.8 µM (inactive)

## CC[C@]1(Cc2ccc(OC)c(OC)c2)C2CC(C(=O)OC)ON2O[C@H](OCc2ccccc2)[C@@H]1OC(C)=O (some centres not stated)
[1]
  GI50: > 100 µM (inactive)
[2]
  GI50: > 100 µM (inactive)
[3]
  GI50: > 100 µM (inactive)
[4]
  GI50: > 100 µM (inactive)
[5]
  GI50: > 100 µM (inactive)
[7]
  GI50: > 100 µM (inactive)
[8]
  GI50: > 100 µM (inactive)
[9]
  GI50: > 100 µM (inactive)
[10]
  GI50: > 100 µM (inactive)
[11]
  GI50: > 100 µM (inactive)
[12]
  GI50: > 100 µM (inactive)
[13]
  GI50: 39.2 µM (inactive)
[14]
  GI50: > 100 µM (inactive)
[55]
  GI50: > 100 µM (inactive)
[15]
  GI50: > 100 µM (inactive)
[16]
  GI50: > 100 µM (inactive)
[17]
  GI50: > 100 µM (inactive)
[18]
  GI50: > 100 µM (inactive)
[56]
  GI50: > 100 µM (inactive)
[20]
  GI50: 98.6 µM (inactive)
[57]
  GI50: 47 µM (inactive)
[58]
  GI50: > 100 µM (inactive)
[21]
  GI50: 42.4 µM (inactive)
[22]
  GI50: > 100 µM (inactive)
[23]
  GI50: > 100 µM (inactive)
[25]
  GI50: > 100 µM (inactive)
[26]
  GI50: > 100 µM (inactive)
[27]
  GI50: > 100 µM (inactive)
[28]
  GI50: > 100 µM (inactive)
[29]
  GI50: > 100 µM (inactive)
[30]
  GI50: > 100 µM (inactive)
[31]
  GI50: > 100 µM (inactive)
[32]
  GI50: > 100 µM (inactive)
[33]
  GI50: > 100 µM (inactive)
[34]
  GI50: > 100 µM (inactive)
[35]
  GI50: 99.3 µM (inactive)
[36]
  GI50: > 100 µM (inactive)
[37]
  GI50: 26.1 µM (inactive)
[38]
  GI50: > 100 µM (inactive)
[39]
  GI50: > 100 µM (inactive)
[40]
  GI50: > 100 µM (inactive)
[41]
  GI50: > 100 µM (inactive)
[42]
  GI50: > 100 µM (inactive)
[43]
  GI50: > 100 µM (inactive)
[44]
  GI50: > 100 µM (inactive)
[59]
  GI50: > 100 µM (inactive)
[45]
  GI50: > 100 µM (inactive)
[46]
  GI50: > 100 µM (inactive)
[47]
  GI50: > 100 µM (inactive)
[48]
  GI50: > 100 µM (inactive)
[49]
  GI50: > 100 µM (inactive)
[50]
  GI50: > 100 µM
[51]
  GI50: > 100 µM (inactive)
[52]
  GI50: > 100 µM (inactive)
[53]
  GI50: > 100 µM (inactive)
[54]
  GI50: > 100 µM (inactive)

## CCCCCC(=O)N[C@@H](c1ccco1)[C@@H](O)C(=O)O[C@H]1C[C@@]2(O)[C@@H](OC(=O)c3ccccc3)[C@@H]3[C@]4(OC(C)=O)CO[C@@H]4C[C@H](O)[C@@]3(C)C(=O)[C@H](OC(C)=O)C(=C1C)C2(C)C
[1]
  GI50: < 0.0025 µM (active)
[2]
  GI50: 0.0575 µM (active)
[3]
  GI50: < 0.0025 µM (active)
[5]
  GI50: < 0.0025 µM (active)
[6]
  GI50: < 0.0025 µM (active)
[7]
  GI50: < 0.0025 µM (active)
[9]
  GI50: 0.0406 µM (active)
[10]
  GI50: 1.75 µM (inactive)
[12]
  GI50: 0.025 µM (active)
[13]
  GI50: < 0.0025 µM (active)
[55]
  GI50: 0.0908 µM (active)
[15]
  GI50: < 0.0025 µM (active)
[16]
  GI50: < 0.0025 µM (active)
[17]
  GI50: < 0.0025 µM (active)
[18]
  GI50: < 0.0025 µM (active)
[20]
  GI50: < 0.0025 µM (active)
[58]
  GI50: 4.32 µM (inactive)
[22]
  GI50: < 0.0025 µM (active)
[23]
  GI50: < 0.0025 µM (active)
[24]
  GI50: < 0.0025 µM (active)
[25]
  GI50: < 0.0025 µM (active)
[26]
  GI50: < 0.0025 µM (active)
[32]
  GI50: < 0.0025 µM (active)
[33]
  GI50: > 25 µM (inactive)
[35]
  GI50: < 0.0025 µM (active)
[36]
  GI50: < 0.0025 µM (active)
[38]
  GI50: < 0.0025 µM (active)
[40]
  GI50: < 0.0025 µM (active)
[43]
  GI50: < 0.0025 µM (active)
[45]
  GI50: < 0.0025 µM (active)
[50]
  GI50: 0.0295 µM
[52]
  GI50: < 0.0025 µM (active)

## COC(=O)c1ccc2cc(O)ccc2c1
[1]
  GI50: > 100 µM (inactive)
[2]
  GI50: 32.4 µM (inactive)
[3]
  GI50: > 100 µM (inactive)
[5]
  GI50: 47.6 µM (inactive)
[7]
  GI50: 78.9 µM (inactive)
[8]
  GI50: > 100 µM (inactive)
[9]
  GI50: 76.6 µM (inactive)
[10]
  GI50: 47.9 µM (inactive)
[11]
  GI50: > 100 µM (inactive)
[12]
  GI50: 56.4 µM (inactive)
[13]
  GI50: > 100 µM (inactive)
[14]
  GI50: 55.6 µM (inactive)
[55]
  GI50: > 100 µM (inactive)
[15]
  GI50: 79.8 µM (inactive)
[16]
  GI50: 68.7 µM (inactive)
[17]
  GI50: 72.3 µM (inactive)
[18]
  GI50: 39.9 µM (inactive)
[56]
  GI50: 79.6 µM (inactive)
[19]
  GI50: 89.3 µM (inactive)
[20]
  GI50: 53.5 µM (inactive)
[57]
  GI50: 56.4 µM (inactive)
[58]
  GI50: > 100 µM (inactive)
[21]
  GI50: 75.7 µM (inactive)
[22]
  GI50: 55 µM (inactive)
[23]
  GI50: 22 µM (inactive)
[24]
  GI50: 21.5 µM (inactive)
[25]
  GI50: > 100 µM (inactive)
[26]
  GI50: > 100 µM (inactive)
[27]
  GI50: > 100 µM (inactive)
[28]
  GI50: > 100 µM (inactive)
[29]
  GI50: > 100 µM (inactive)
[30]
  GI50: > 100 µM (inactive)
[31]
  GI50: > 100 µM (inactive)
[32]
  GI50: 25.2 µM (inactive)
[33]
  GI50: 55.8 µM (inactive)
[34]
  GI50: > 100 µM (inactive)
[35]
  GI50: > 100 µM (inactive)
[36]
  GI50: 87.7 µM (inactive)
[38]
  GI50: > 100 µM (inactive)
[39]
  GI50: 53.5 µM (inactive)
[41]
  GI50: 89.9 µM (inactive)
[42]
  GI50: > 100 µM (inactive)
[43]
  GI50: 96.6 µM (inactive)
[44]
  GI50: > 100 µM (inactive)
[59]
  GI50: 38.5 µM (inactive)
[45]
  GI50: 58.6 µM (inactive)
[46]
  GI50: 41.5 µM (inactive)
[47]
  GI50: 60.1 µM (inactive)
[48]
  GI50: 69.2 µM (inactive)
[49]
  GI50: > 100 µM (inactive)
[50]
  GI50: > 100 µM
[51]
  GI50: > 100 µM (inactive)
[52]
  GI50: 53.2 µM (inactive)
[53]
  GI50: 72.1 µM (inactive)
[54]
  GI50: > 100 µM (inactive)
